These results are taken from patent US20240082269A1, “METHODS AND PRODUCTS INCLUDING SPECIFIC CANNABINOIDS” (priority 2022, published 2024).

A short description of this assay: Four Hempson Oil studies taken together (safety, overall THCV effect). The conditions noted are these: daily use of 8 mg doses of THCV over 60-180 days. It is filed as in vivo, human. The source says: The following pre-clinical and clinical research has shown that small daily oral amounts of Hempson Oil®—a hemp-extract high in cannabidiol (CBD), tetrahydrocannabivarin (THCV), and cannabidivarin (CBDV)—have consistent effects of weight loss, reduction in abdominal girth, blood sugar (HgbA1c) and blood lipid ratios. These comparative examples are shown merely for the effect the active ingredients may have upon metabolic disorders and weight loss.
The Hempson Oil Studies: from 2019 until April 2021, several independent high quality human trials were completed using an oral Hempson® oil in a micellized tincture or non-micellized oil in gel caps. All of the studies were NIH-supported. All studies were double-blind, placebo-controlled, multisite, and randomized effectiveness studies of a hemp extract, known as Hempson® oil that is high in CBD, THCV, and CBDV. The studies used either type II diabetics, obese or healthy adults. The studies done with micellized oil tincture used lower doses with micellized Hempson® oil because of increased the absorption and bioavailability of the cannabinoids.
In each study, subjects were randomly assigned to either the Hempson Oil® group (100 subjects) or the control group (50 subjects). Each subject signed a study consent form. Subjects were instructed to orally ingest this study product once daily. All subjects were instructed not to change their eating, drinking, or exercise habits for the duration of this study.
All of the study results reported below were statistically significant (p<0.05) compared to placebo results.

As to `CCCc1cc(O)c2c(c1)OC(C)(C)[C@@H]1CCC(C)=C[C@@H]21` [THCV, tetrahydrocannabivarin], the “A1C blood levels (diabetic measure)” value was “decrease in A1C blood levels”, the Abdominal girth result was “decrease of abdominal girth” and the Weight entry is “statistically significant weight loss”.
